Test results reported in patent US20050042701A1, “Anti-petasin antibodies, methods for the production thereof and their use” (priority 1998, published 2005).
Like-named read-outs stand apart in the source and are kept apart here.

Experiment: 1st phase clinical test: pharmacokinetics of petasin in serum after single oral administration of tablets containing butterbur extract (open crossover; enzyme immunoassay)
Assay type: in vivo, human (clinically healthy men)
Conditions: for concentration at 0.25 h: 0.25 h p.a.; for concentration at 0.5 h: 0.5 h p.a.; for concentration at 0.75 h: 0.75 h p.a.; for concentration at 1 h: 1 h p.a.; for concentration at 1.17 h: 1.17 h p.a. (1.167 in Table 3); for concentration at 1.5 h: 1.5 h p.a.; for concentration at 1.833 h: 1.833 h p.a.; for concentration at 2.167 h: 2.167 h p.a.; for concentration at 2.5 h: 2.5 h p.a.; for concentration at 3 h: 3 h p.a.; for concentration at 4 h: 4 h p.a.; for concentration at 5 h: 5 h p.a.; for concentration at 6 h: 6 h p.a.; for concentration at 8 h: 8 h p.a.; for concentration at 12 h: 12 h p.a.; for concentration at 24 h: 24 h p.a.; for Cmax / MRT / Tmax / half-life / AUC / AUC(0-t): single oral, mean ± SD; for AUC: read-out: AUC0-i; for AUC(0-t): read-out: AUC0-t(last)
Experimental: Petasin ovalbumin is adsorptively bound to polystyrene microtitration plates in a concentration of […] in 0.1 M carbonate buffer, pH=9.5, (100 μl/well) for 16 hours at 4° C. and thereupon sucked off. After washing it two times with 300 μl/well washing buffer (PBS, 0.1% Tween 20) it is blocked for 2 hours at room temperature with 150 μl/well blocking solution (0.6% gelatine, 0.02% […] in PBS) and subsequently washed three times with washing buffer.
50 μl of the serum sample to be tested or the respective standard (1:4 dilution in a sample buffer (PBS, 1% BSA, 0.1% Tween 20, 0.01% thiomersal) and 50 μL of an optimized anti-serum dilution in a sample buffer are simultaneously incubated with shaking for 1 hour at room temperature. Subsequently, the microtitration plate is washed three times with 300 μl/well of washing buffer and incubated for 30 min. at room temperature with 100 μl of anti-rabbit immunoglobulin peroxidase conjugate, diluted in sample buffer, and once more washed as above. Thereupon, it is incubated for 10 min. with 100 μl of a substrate solution ready for use (3.3′, 5.5′-tetramethyl benzidine) per well and the reaction is stopped by adding 100 μl/well of 0.5 M sulfuric acid. The evaluation is carried out at 450 nm in a microtitration plate reader.
In a 1st phase of the clinical test for determining the pharmacokinetic parameters of tablets containing butterbur extract was a single oral administrations of 2 or 4 tablets to 24 clinically healthy men at the age between 18 and 40 years.
The open, crossover test was chosen as method, single administration of each dose in a randomized order with an interval of at least 7 days between the administrations.
Model-independent pharmacokinetic parameters for petasin Statistical methods:
ANOVA, ANOVAlog, Wilcoxon-Mann-Whitney test, Wilcoxon-sign order test

[1] = male, human, serum, oral, 4 tablets, after administering 4 tablets, read-out: Petasin serum concentration Max.
[2] = male, human, serum, oral, 4 tablets, after administering 4 tablets, read-out: Petasin serum concentration Mean
[3] = male, human, serum, oral, 4 tablets, after administering 4 tablets, read-out: Petasin serum concentration Median
[4] = male, human, serum, oral, 4 tablets, after administering 4 tablets, read-out: Petasin serum concentration Min.

`C=C(C)C1CC2(C)C(=CC1=O)CCC(OC(=O)/C(C)=C\C)C2C` (stereo not drawn) [petasin] showed a concentration at 0 h (male, human, serum, oral, 4 tablets, after administering 4 tablets, 0 h p.a., read-out: Petasin serum concentration Min.) of 0 ng/mL, a concentration at 0.25 h [1] of 14.9 ng/mL and a concentration at 0.25 h [2] of 4.2 ng/mL. The concentration at 0.25 h [3] was 3.2 ng/mL, the concentration at 0.25 h [4] was 1 ng/mL and the concentration at 0.5 h [1] was 96.2 ng/mL. For the same molecule, the concentration at 0.5 h [2] was 21.2 ng/mL, the concentration at 0.5 h [3] was 13.7 ng/mL and the concentration at 0.5 h [4] was 1.3 ng/mL. It also gave a concentration at 0.75 h [1] of 91.8 ng/mL, a concentration at 0.75 h [2] of 28.7 ng/mL and a concentration at 0.75 h [3] of 23 ng/mL. It also gave a concentration at 0.75 h [4] of 2.5 ng/mL, a concentration at 1 h [1] of 100 ng/mL and a concentration at 1 h [2] of 36.6 ng/mL. It also gave a concentration at 1 h [3] of 38.1 ng/mL, a concentration at 1 h [4] of 7.8 ng/mL and a concentration at 1.17 h [1] of 100 ng/mL. For the same molecule, the concentration at 1.17 h [2] was 47.3 ng/mL, the concentration at 1.17 h [3] was 43.6 ng/mL and the concentration at 1.17 h [4] was 7.5 ng/mL. It also gave a concentration at 1.5 h [1] of 90.7 ng/mL, a concentration at 1.5 h [2] of 40.8 ng/mL and a concentration at 1.5 h [3] of 32.4 ng/mL. For the same molecule, the concentration at 1.5 h [4] was 12.2 ng/mL, the concentration at 1.833 h [1] was 100 ng/mL and the concentration at 1.833 h [2] was 32 ng/mL. The concentration at 1.833 h [3] was 26.8 ng/mL, the concentration at 1.833 h [4] was 13.8 ng/mL and the concentration at 2.167 h [1] was 76.1 ng/mL. The concentration at 2.167 h [2] was 28.9 ng/mL, the concentration at 2.167 h [3] was 27.5 ng/mL and the concentration at 2.167 h [4] was 11.4 ng/mL. It also gave a concentration at 2.5 h [1] of 40.9 ng/mL, a concentration at 2.5 h [2] of 24.3 ng/mL and a concentration at 2.5 h [3] of 26.1 ng/mL. The concentration at 2.5 h [4] was 8.4 ng/mL, the concentration at 3 h [1] was 49 ng/mL and the concentration at 3 h [2] was 17.9 ng/mL. For the same molecule, the concentration at 3 h [3] was 14.6 ng/mL, the concentration at 3 h [4] was 7.2 ng/mL and the concentration at 4 h [1] was 20.8 ng/mL. For the same molecule, the concentration at 4 h [2] was 9.5 ng/mL, the concentration at 4 h [3] was 8.1 ng/mL and the concentration at 4 h [4] was 2.9 ng/mL. For the same molecule, the concentration at 5 h [1] was 81.4 ng/mL, the concentration at 5 h [2] was 12.4 ng/mL and the concentration at 5 h [3] was 7.3 ng/mL. The concentration at 5 h [4] was 3.2 ng/mL, the concentration at 6 h [1] was 14.7 ng/mL and the concentration at 6 h [2] was 5.8 ng/mL. The concentration at 6 h [3] was 5 ng/mL, the concentration at 6 h [4] was 1.6 ng/mL and the concentration at 8 h [1] was 15.7 ng/mL. The concentration at 8 h [2] was 3.9 ng/mL, the concentration at 8 h [3] was 3.1 ng/mL and the concentration at 8 h [4] was 1.4 ng/mL. The concentration at 12 h [1] was 5.1 ng/mL, the concentration at 12 h [2] was 2.7 ng/mL and the concentration at 12 h [3] was 2.5 ng/mL. It also gave a concentration at 12 h [4] of 1.3 ng/mL, a concentration at 24 h [1] of 2.3 ng/mL and a concentration at 24 h [2] of 1.3 ng/mL. The concentration at 24 h [3] was 1 ng/mL, the concentration at 24 h [4] was 1 ng/mL and the Cmax (male, human, serum, 2 tablets) was 25.5 ± 14.8 ng/mL. The MRT (male, human, serum, 2 tablets) was 7.32 ± 3.74 h, the Tmax (male, human, serum, 2 tablets) was 1.62 ± 0.499 h and the half-life (male, human, serum, 2 tablets) was 7.16 ± 4.61 h. The AUC (male, human, serum, 2 tablets) was 79.7 ± 42.3 ng·h/mL, the AUC(0-t) (male, human, serum, 2 tablets) was 65.3 ± 35.6 ng·h/mL and the Cmax (male, human, serum, 4 tablets) was 58.1 ± 26.7 ng/mL. The MRT (male, human, serum, 4 tablets) was 6.74 ± 2.47 h, the Tmax (male, human, serum, 4 tablets) was 1.61 ± 0.926 h and the half-life (male, human, serum, 4 tablets) was 7.62 ± 3.34 h. The AUC (male, human, serum, 4 tablets) was 168 ± 73.4 ng·h/mL, the AUC(0-t) (male, human, serum, 4 tablets) was 151 ± 68.2 ng·h/mL and the Resorption (single oral administration of 2 or 4 tablets) was “takes quickly place depending on the dose”.
